# Where no end group is shown, it is not given here.
# B1: scrambled peptide (Scr-FTP) (peptide)
# peptide: YCNSTVCY
# modifications: cysteine pairing not given here; also: Alexa488 label in binding assays, site not given here
# notes: also called scrambled-FTP; Scr-A488
# Assays:
# [1] = rat, in vivo
# Method: Intranasal administration of peptides was performed using a pressurized olfactory delivery (POD) device (Impel Neuropharma). Briefly, rats were kept in an isoflurane chamber containing 5% isoflurane for 3 minutes. After the animals were deeply anesthetized, the rats were placed in a supine position for drug injection. A POD tip (Impel Neuropharma) was carefully inserted into a nostril, and then a prefilled 25 μl catheter tube was slowly inserted appropriately 2 cm into the nostril. Thereafter, a peptide solution (PBS) (15 μl of PBS and 500 nM peptide) was slowly injected thereinto. A total of 700 μg of the FTP peptide was intranasally injected 12 hours after MCAO. After intranasal administration, the rats were maintained in the supine position for 5 minutes before they kept back to their designated cage.
# A total of 500 μg of FTP was conjugated with Alexa-488 according to the manufacturer's guidelines (Molecular probes, Life Technologies). The Alexa^488 conjugated short peptide was intranasally injected with a final volume of 25 μl into each nostril using a POD device 12 hours after MCAO. After a predetermined period of time, the animals were sacrificed and tissues were excised therefrom. The tissues were washed with cold PBS and surface meninges were removed to avoid auto-fluorescence.
# Fas [2] = molecular target: T1, Fas (Mus musculus, UniProt P25446); test: Competition assay of a Fas antibody and a FTP on hypoxic Neuro2a cells; assay type: binding; settings: FIG. 1C
# T1 construct: Neuro2a cells were cultured in an oxygen glucose deprivation (OGD) medium for 24 hour under hypoxic conditions to induce Fas expression; endogenous in cells; host or cells: Neuro2a (mouse neuroblastoma, ATCC), hypoxia/OGD-induced
# T1 sequence (P25446 22-327): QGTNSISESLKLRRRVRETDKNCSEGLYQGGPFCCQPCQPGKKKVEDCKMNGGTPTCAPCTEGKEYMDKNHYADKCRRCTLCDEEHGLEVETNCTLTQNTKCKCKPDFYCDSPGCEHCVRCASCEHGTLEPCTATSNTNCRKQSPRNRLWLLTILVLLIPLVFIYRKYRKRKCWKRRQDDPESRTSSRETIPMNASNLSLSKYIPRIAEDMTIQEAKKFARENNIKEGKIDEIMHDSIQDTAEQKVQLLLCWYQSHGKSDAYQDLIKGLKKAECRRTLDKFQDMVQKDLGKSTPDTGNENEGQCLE
# Method: FIG. 1C illustrates the results of a competition assay of a Fas antibody and a FTP, wherein the representative histograms show binding of a Fas antibody to hypoxic cells after treatment with a FTP; data is expressed as mean±SD of three replicated experiments; **P<0.01, ***P<0.001; Normoxia represents cells maintained under normal culture conditions, and Hypoxia represents cells cultured in an OGD medium for 24 hours, followed by re-oxygenation in a serum-containing DMEM medium for 24 hours; and FTP: Fas targeting peptide, Scr-FTP: scrambled peptide.
# MCAO rats [3] = test: Kaplan-Meier survival of MCAO rats; assay type: in vivo, rat; settings: for animals survived: intranasal delivery; for rats that died over time: of the 18 rats per group, day 1 until day 5 after reperfusion, FIG. 4H
# Method: (§1) Briefly, animals were anesthetized with 5% isoflurane. […] Thereafter, the CCA was completely occluded using a clip.
# The survival rate of each group of animals was evaluated using a previously described method^[3].
# MCAO rats [4] = test: Neurological evaluation (deficit grade 0-4) of MCAO rats; assay type: in vivo, rat
# Method: as §1
# The neurological deficits of each group of rats with or without peptide treatment were evaluated using a commonly known method^[2]. […] Next, the animals were placed on absorbent pads and tails thereof were pulled to examine their grips power. […] The rats were placed in a sufficiently wide space and allowed to move freely. Grade 3 was given for the case in which rats moved in a circle towards the paralyzed side when tails thereof were pulled. Grade 4 was given for the case in which rats spontaneously moved in a circle under a free environment.
# MCAO rats [5] = test: TTC staining and measurement of infarct volume in MCAO rats; assay type: in vivo, rat; settings: 15 mmol I.N. 12 hours after reperfusion
# Method: as §1
# After a predetermined period of treatment, the brain was immediately removed. The expected area of damage in the brain was sliced into 3 slices (2 mm thick) including a brain matrix and then incubated in 2% 2,3,5-triphenyltetrazolium chloride (TTC, Sigma) at 37° C. for 10 minutes. The brain slices were then fixed in 4% paraformaldehyde and kept at 4° C. for 24 hours until imaging and photographing. The infarct volume was measured using Image J developed by the U.S. National Institute of Health (NIH) and calculated as commonly known.
# Fas [6] = molecular target: T1, Fas; test: FTP binding to Fas-expressing hypoxic Neuro2a cells (flow cytometry, confocal microscopy); settings: for binding to Fas-expressing hypoxic cells: hypoxic Neuro2a cells (OGD 24 h)
# Method: (§2) Mouse neuroblastoma (Neuro2a, N2a) cells were obtained from ATCC and cultured in Dulbecco's Modified Eagle's Medium (DMEM) containing 10% fetal bovine serum (FBS), penicillin (100 IU/ml), and streptomycin (100 μg/ml). To duplicate an ischemia/reperfusion environment in vitro, the Neuro2a cells were cultured in a 6-well plate and maintained under a hypoxic condition (94% N2, 5% CO2, and 1% O2) in an oxygen glucose deprivation (OGD) medium (Life Technologies) for 24 hours. Subsequently, the cells were re-oxygenated in DMEM supplemented with 10% FBS (5% CO2, 20% O2, 37° C.) for 24 hours.
# To identify co-localization of a FTP and a Fas receptor, Neuro2a cells were seeded on a cover slip and maintained under a hypoxic condition in an OGD medium for 24 hours. After incubating for 24 hours, the cells were treated with PBS containing 1% BSA and 0.05% Tween 20 and blocked at 37° C. for 2 hours, followed by staining with an anti-Fas antibody (Abcam) and an Alexa647-conjugated FTP at 4° C. for 2 hours. After incubating for 2 hours, the cells were washed three times with PBS containing 0.05% Tween 20, and stained with a secondary antibody (Abcam) at 4° C. for 2 hours under a dark condition. Nuclei of the cells were counterstained with Hoechst 33342 and fixed with an aqueous mounting solution (Abcam). Fluorescence signals in the cells were obtained using a TSP-SP5 confocal microscope (Leika, Germany).
# [7] = test system: cleaved caspase-8 and caspase-3; test: Western blotting of cleaved caspase-8 and caspase-3 in hypoxic Neuro2a cells; assay type: cell-based, mouse
# Method: as §2
# Neuro2a cells were lysed using a RIPA lysis buffer in the presence of […] phenylmethylsulfonyl fluoride (PMSF) as a protease inhibitor. A total of 50 μg of protein was loaded in a 12% SDS-PAGE gel and transferred onto a nitrocellulose transfer membrane (Whatman). Blots were blocked with 5% skim milk in TBST at room temperature for 2 hours and incubated at 4° C. with primary antibodies (Abcam). After a predetermined period of time, the blots were washed with TBST and incubated for 2 hours with secondary polyclonal antibodies coupled with HRP. After washing the blots three times with TBST, the blots were developed using an ECL western blotting substrate (Promega).
# [8] = test system: hypoxia-induced Neuro2a cells; test: Inhibition of in vitro Fas-mediated apoptosis (PE Annexin V / 7-AAD flow cytometry); assay type: cell-based, mouse
# Method: Mouse neuroblastoma (Neuro2a, N2a) cells were obtained from ATCC and cultured in Dulbecco's Modified Eagle's Medium (DMEM) containing 10% fetal bovine serum (FBS), penicillin (100 IU/ml), and streptomycin (100 μg/ml). To duplicate an ischemia/reperfusion environment in vitro, the Neuro2a cells were cultured in a 6-well plate and maintained under a hypoxic condition (94% N2, 5% CO2, and 1% O2) in an oxygen glucose deprivation (OGD) medium (Life Technologies) for 24 hours. Subsequently, the cells were re-oxygenated in DMEM supplemented with 10% FBS (5% CO2, 20% O2, 37° C.) for 24 hours. To examine an inhibitory effect of a FTP, hypoxia-induced Neuro2a cells were treated with 1,000 μM of a FTP. After incubating for 24 hours, the cells were stained using a PE Annexin V apoptosis detection kit (BD Pharmingen™) according to the manufacturer's instructions.
# MCAO rats [9] = test: TUNEL analysis of apoptosis in brain sections of MCAO rats; assay type: in vivo, rat; settings: intranasal FTP, FIG. 4G
# Method: as §1
# A extent of apoptosis in de-paraffinized and rehydrated brain sections was analyzed through TUNEL analysis using an In Situ Cell Death Detection Kit (Roche, Germany) according to the manufacturer's instructions.
# MCAO rats [10] = test: H&E histology of the brain of MCAO rats; assay type: in vivo, rat; settings: FTP-inoculated group, day 1 to day 5 after reperfusion, FIG. 4F
# Source text: as §1
# Paraffin-embedded brain sections were de-paraffinized, rehydrated and then subjected to H&E staining according to standard protocols. The H&E stained sections were covered with cover slips and roughly analyzed using an optical microscope.
# [11] = molecular target: T2, Fas on hypoxic mouse neuroblastoma Neuro2a cells (mouse, UniProt P25446 22-327); test: flow cytometry, Alexa488-labeled peptide on hypoxic Neuro2a cells
# T2 construct: whole, on cells; also called Fas receptor; Fas-expressing hypoxic cells
# T2 sequence (looked up): T1 sequence (P25446 22-327)
# [12] = fluorescence-labeled peptide, FIG. 1B
# [13] = hypoxic Neuro2a cells, 1,000 μM FTP, FIG. 2B
molecule,measurement,setting,value
"FTP-A^488: FTP conjugated with Alexa-488 for bio-distribution (YCDEHFCY; cysteine pairing not given here; also: conjugated with Alexa-488, position not given here)",fluorescence signal in other organs,[1],no signal was found
same,fluorescence signal in the lungs,[1],slight fluorescence signal
same,localization of labeled peptide in the brain,[1],localization of labeled peptides occurred
same,retention of labeled peptide in the brain,[1],maintained in the brains of MCAO-treated rats
"Scr-A^488: scrambled peptide labeled with Alexa^488 (YCNSTVCY; cysteine pairing not given here; also: labeled with Alexa-488, position not given here) [reference compound]","fluorescence exposure in the liver and kidneys, Scr-A^488 group versus FTP-A^488 group",[1],much more
same,fluorescence signal in other organs,[1],no signal was found
same,fluorescence signal in the lungs,[1],slight fluorescence signal
same,localization of labeled peptide in the brain,[1],strong localization
same,retention of labeled peptide in the brain,[1],not maintained
YCDEHFCY [FTP],competitive assay between FTP and α-Fas antibody,Fas [2],bound to different regions of a Fas molecule
same,animals survived,MCAO rats [3]; first of three values printed for 1 to 5 days after reperfusion,90%
same,animals survived,MCAO rats [3]; second of three values printed for 1 to 5 days after reperfusion,80%
same,animals survived,MCAO rats [3]; third of three values printed for 1 to 5 days after reperfusion,80%
same,rats that died over time,MCAO rats [3],2 rats
same,neurological deficits score compared to the saline-treated group,MCAO rats [4]; FIG. 4I,improved
same,"neurological functions, average grade","MCAO rats [4]; grade 0-4, first of four values between day 1 and day 5 after reperfusion",3.3
same,"neurological functions, average grade","MCAO rats [4]; grade 0-4, fourth of four values between day 1 and day 5 after reperfusion",1.3
same,"neurological functions, average grade","MCAO rats [4]; grade 0-4, second of four values between day 1 and day 5 after reperfusion",2.3
same,"neurological functions, average grade","MCAO rats [4]; grade 0-4, third of four values between day 1 and day 5 after reperfusion",2.3
same,size of the infarcted area compared to Mock (PBS)- or Scr-FTP-treatment,MCAO rats [5]; as early as day 1 after MCAO,significantly reduced the size of the infarcted area
same,infarct volume,MCAO rats [5]; day 1,26%
same,infarct volume,MCAO rats [5]; day 2,29%
same,infarct volume,MCAO rats [5]; day 3,18%
same,infarct volume,MCAO rats [5]; day 5,7%
same,recovery from the infarct,MCAO rats [5]; day 5 after reperfusion,almost completely recovered
same,binding to Fas-expressing hypoxic cells,Fas [6]; [12],only bound to the Fas-expressing hypoxic cells
same,binding to normal cells,"Fas [6]; fluorescence-labeled peptide, normal (normoxic) Neuro2a cells, FIG. 1B",die not bind to normal cells
same,"engagement to Fas-expressing cells, confocal microscopic images","Fas [6]; hypoxic Neuro2a cells, FIG. 2A",strongly engaged to the Fas-expressing cells
same,decrease of cleaved caspase-3,[7]; FIG. 2C,40%
same,decrease of cleaved caspase-8,[7]; FIG. 2C,~50%
same,expression of activated cleaved caspase-8 and activated caspase-3 according to concentration,"[7]; no dramatic change at full-length enzyme level, FIG. 3",decreased in a dose-dependent manner
same,decrease of annexin V positive cells,[8]; [13],~50%
same,decrease of annexin V/7-ADD positive cells,[8]; [13],~50%
same,decrease in 7-AAD positive cells,"[8]; hypoxic Neuro2a cells, after FTP treatment",any significant decrease was not observed
same,number of apoptotic cells (TUNEL positive cells),MCAO rats [9]; day 1 after reperfusion,26%
same,number of apoptotic cells (TUNEL positive cells),MCAO rats [9]; day 5 after reperfusion,9%
same,interstitial edema and pyknotic nuclei,MCAO rats [10],started to reduce on day 1 after reperfusion and were alleviated on day 5 thereafter
"YCNSTVCY [ScrFTP, scrambled peptide used as a control peptide, reference compound]",rats that died over time,MCAO rats [3],11 rats
same,progressive effect on behavior after MCAO,MCAO rats [4]; between day 1 and day 5,worsened
same,binding to Fas-expressing hypoxic cells,Fas [6]; [12],did not bind to the hypoxic cells
same,decrease of cleaved caspase-8,[7]; FIG. 2C,did not decrease cleaved caspase 8
B1,binding result,[11],no binding

# Reference: US10772827B2, “Composition for treating apoplexy through nasal administration” (INDUSTRY-UNIVERSITY COOPERATION FOUNDATION HANYANG …, priority 2015, dated 2020)
